In US20130108702A1, “COPPER/SILICA NANOPARTICLES, METHODS OF MAKING, AND METHODS OF USE” (priority 2011, published 2013):

Assays:
E. coli = assay type: cell-based, Escherichia coli (ATCC 35218); settings: ppm of silver, organism not given
Procedure: (§1) Antibacterial properties of C—S CuSiNP and AgSiNG materials were evaluated against a gram positive Bacillus subtilis (B. subtilis, ATCC 9372) and a gram negative Escherichia coli (E. coli, ATCC 35218) organism. For all antibacterial assays, bacterial concentration of 10^5 cells/mL was considered. Copper sulfate with same metallic copper concentration was used as positive controls and silica nanoparticle (without Cu loading) was used as negative control.
(§2) Two sets of different concentrations of C—S CuSiNP were made in LB broth (0.49, 1.2, 2.4, 4.9, 7.2 and 9.8 ppm copper concentration) to a final volume of 10 mL. 250 μL (10^5 cells/mL) of E. coli and B. subtilis were added to set 1 and 2 respectively. Silica nanoparticle was used as negative control and copper sulfate with equivalent amount of copper was used as positive control. […]
(§3) The growth inhibitory effects of C—S CuSiNP and AgSiNG against E. coli and B. subtilis were studied in liquid media (FIG. 2.3 and FIG. 2.4). Bacterial growth with different concentrations of C—S CuSiNP and AgSiNG (0.49 to 9.8 μg mL^−1) was monitored after 24 hours of incubation at 37° C. by measuring the optical density at 600 nm using Teysche800 spectrophotometer. Since the turbidity of silica based material can interfere with the optical density reading, the background measurement was subtracted to calculate the final reading.

B. subtilis = assay type: cell-based, Bacillus subtilis (ATCC 9372); settings: ppm of silver, organism not given
Procedure: as §1, §2, §3

## O=[N+]([O-])[O-].[Ag+] [silver nitrate]
E. coli
  silver concentration at which growth inhibition can be seen: 2.4 ppm
B. subtilis
  silver concentration at which growth inhibition can be seen: 2.4 ppm
